Test results taken from PubChem BioAssay AID1963985 (Molecular Pharmacology Branch, DTP, NCI, 2024).

System: 252836-082-R-J2-PDC tumor spheroids, viability
Experiment: Anticancer human tumor 252836-082-R-J2-PDC patient-derived head and neck squamous cell carcinoma cell line growth inhibition [PI3K]
Settings: spheroids with HUVEC and MSC; for IC50: curve of first compound; for viability, T/C: stronger effect = lower value
Method in brief: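 Multi-cell spheroids combine tumor cells with HUVEC and human MSCs, treated with targeted agents alone or with inavolisib, alpelisib, duvelisib or copanlisib. Concentrations fall in half-log steps from at or near clinical Cmax, or from 10 microM where Cmax is unknown; viability read-out.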
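Further: spheroids exposed to agents for seven days before readout.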
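Wherever viability, T/C is given: percent of vehicle DMSO control viability so 100% = untreated growth.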

For `CC(=O)c1c(C)c2cnc(Nc3ccc(N4CCNCC4)cn3)nc2n(C2CCCC2)c1=O` + COc1c(OCCCN2CCOCC2)ccc2c3n(c(=NC(=O)c4cnc(N)nc4)nc12)CCN3, the IC50 (second compound 0.00316 µM) was > 100 nM, the IC50 (second compound 0.01 µM) was > 100 nM and the IC50 (second compound 0.0316 µM) was > 100 nM. The IC50 (second compound 0.1 µM) was < 0.316 nM, the IC50 (second compound 0.316 µM) was < 0.316 nM and the IC50 (second compound 1 µM) was < 0.316 nM. The viability, T/C (second compound 0.00316 µM, first compound 0.000316 µM) was 95%, the viability, T/C (second compound 0.00316 µM, first compound 0.001 µM) was 93.1% and the viability, T/C (second compound 0.00316 µM, first compound 0.00316 µM) was 85.6%. The viability, T/C (second compound 0.00316 µM, first compound 0.01 µM) was 96.3%, the viability, T/C (second compound 0.00316 µM, first compound 0.0316 µM) was 87.8% and the viability, T/C (second compound 0.00316 µM, first compound 0.1 µM) was 99%. For the same molecule, the viability, T/C (second compound 0.01 µM, first compound 0.000316 µM) was 84.7%, the viability, T/C (second compound 0.01 µM, first compound 0.001 µM) was 81.4% and the viability, T/C (second compound 0.01 µM, first compound 0.00316 µM) was 78.5%. It also gave a viability, T/C (second compound 0.01 µM, first compound 0.01 µM) of 84.3%, a viability, T/C (second compound 0.01 µM, first compound 0.0316 µM) of 81.1% and a viability, T/C (second compound 0.01 µM, first compound 0.1 µM) of 83.7%. For the same molecule, the viability, T/C (second compound 0.0316 µM, first compound 0.000316 µM) was 69.5%, the viability, T/C (second compound 0.0316 µM, first compound 0.001 µM) was 60.9% and the viability, T/C (second compound 0.0316 µM, first compound 0.00316 µM) was 66.9%. For the same molecule, the viability, T/C (second compound 0.0316 µM, first compound 0.01 µM) was 56.5%, the viability, T/C (second compound 0.0316 µM, first compound 0.0316 µM) was 64% and the viability, T/C (second compound 0.0316 µM, first compound 0.1 µM) was 62.6%. For the same molecule, the viability, T/C (second compound 0.1 µM, first compound 0.000316 µM) was 37.1%, the viability, T/C (second compound 0.1 µM, first compound 0.001 µM) was 41.2% and the viability, T/C (second compound 0.1 µM, first compound 0.00316 µM) was 37.8%. For the same molecule, the viability, T/C (second compound 0.1 µM, first compound 0.01 µM) was 45.5%, the viability, T/C (second compound 0.1 µM, first compound 0.0316 µM) was 41.7% and the viability, T/C (second compound 0.1 µM, first compound 0.1 µM) was 37.5%. The viability, T/C (second compound 0.316 µM, first compound 0.000316 µM) was 18.2%, the viability, T/C (second compound 0.316 µM, first compound 0.001 µM) was 21.1% and the viability, T/C (second compound 0.316 µM, first compound 0.00316 µM) was 20.6%. For the same molecule, the viability, T/C (second compound 0.316 µM, first compound 0.01 µM) was 18.7%, the viability, T/C (second compound 0.316 µM, first compound 0.0316 µM) was 21.8% and the viability, T/C (second compound 0.316 µM, first compound 0.1 µM) was 16.6%. It also gave a viability, T/C (second compound 1 µM, first compound 0.000316 µM) of 4.69%, a viability, T/C (second compound 1 µM, first compound 0.001 µM) of 5.36% and a viability, T/C (second compound 1 µM, first compound 0.00316 µM) of 5.54%. For the same molecule, the viability, T/C (second compound 1 µM, first compound 0.01 µM) was 5.58%, the viability, T/C (second compound 1 µM, first compound 0.0316 µM) was 6.27% and the viability, T/C (second compound 1 µM, first compound 0.1 µM) was 4.95%.
